From US11667645B2, “Granzyme B directed imaging and therapy” (CytoSite Biopharma Inc., priority 2018, dated 2023) come the findings set out here.

For orientation: IC50 means the midpoint of a concentration-inhibition curve.

Granzyme B (human lymphocytes), sequence (P10144 21-247): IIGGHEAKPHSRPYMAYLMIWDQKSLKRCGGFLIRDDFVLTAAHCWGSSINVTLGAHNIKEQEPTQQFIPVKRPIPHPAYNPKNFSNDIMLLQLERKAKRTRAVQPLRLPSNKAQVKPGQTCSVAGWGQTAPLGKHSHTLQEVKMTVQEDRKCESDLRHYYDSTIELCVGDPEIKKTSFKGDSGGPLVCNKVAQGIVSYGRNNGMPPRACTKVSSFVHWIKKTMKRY

The assay concerns the target Granzyme B (human lymphocytes) (Homo sapiens (Human), UniProt P10144). The experiment in a line: human Granzyme B biochemical assay. The following applies: Granzyme B (human lymphocytes) 5 nM, substrate Ac-IETD-AFC 200 μM, Cpd incubation with enzyme 30 mins, 22° C., read time 60 mins; read-out: IC50. In a few lines: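 Fluorogenic Ac-IETD-AFC cleavage (Ex 400/Em 505 nm) read after 60 min at 22 °C, following 30 min, 22 °C enzyme–compound pre-incubation. Working stocks: enzyme 10 nM in 0.1% BSA buffer, substrate 800 µM, compound 8 points, 3.16-fold from 40 µM. Controls set 0% (DMSO) and 100% (standard inhibitor) inhibition; IC50 fitted.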
In the case of `O=C(N[C@@H](Cc1ccc(O)cc1)C(=O)N[C@H]1CCc2cccc3c2N(C1=O)[C@H](C(=O)NCc1c[nH]nn1)C3)c1ccccc1` [Compound C042, (2S,5S)-5-[(S)-2-Benzoylamino-3-(4-hydroxy-phenyl)-propionylamino]-4-oxo,2,4,5,6,7-hexahydro-azepino[3,2,1-hi]indole-2-carboxylic acid (1H-[1,2,3]triazol-4-ylmethyl)-amide], the half-inhibitory concentration (IC50) is > 5000 nM.
Regarding `O=C(N[C@@H](Cc1ccc(F)cc1)C(=O)N[C@H]1CCc2cccc3c2N(C1=O)[C@H](C(=O)NCc1c[nH]nn1)C3)c1ccccc1` [Compound C043, (2S,5S)-5-[(S)-2-Benzoylamino-3-(4-fluoro-phenyl)-propionylamino]-4-oxo-1,2,4,5,6,7-hexahydro-azepino[3,2,1-hi]indole-2-carboxylic acid (1H-[1,2,3]triazol-4-ylmethyl)-amide], the concentration for half-maximal inhibition (IC50) is > 5000 nM.
The figure for `CC(C)(NC(=O)Cc1csc2ccccc12)C(=O)N[C@H]1CCc2cccc3c2N(C1=O)[C@H](C(=O)NCc1c[nH]nn1)C3` [Compound C044, (2S,5S)-5-[2-(2-Benzo[b]thiophen-3-yl-acetylamino)-2-methyl-propionylamino]-4-oxo-1,2,4,5,6,7-hexahydro-azepino[3,2,1-hi]indole-2-carboxylic acid (1H-[1,2,3]triazol-4-ylmethyl)-amide] is > 5000 nM; for `CC[C@H](NC(=O)c1ccccc1)C(=O)N[C@H]1CCc2cccc3c2N(C1=O)[C@H](C(=O)NCc1c[nH]nn1)C3` [Compound C045, (2S,5S)-5-((S)-2-Benzoylamino-butyrylamino)-4-oxo-1,2,4,5,6,7-hexahydro-azepino[3,2,1-hi]indole-2-carboxylic acid (1H-[1,2,3]triazol-4ylmethyl)-amide] it is 1000 to 5000 nM; for `CC(C)(C)[C@H](NC(=O)c1ccccc1)C(=O)N[C@H]1CCc2cccc3c2N(C1=O)[C@H](C(=O)NCc1c[nH]nn1)C3` [Compound C046, (2S,5S)-5-((S)-2-Benzoylamino-3,3-dimethyl-butyrylamino)-4-oxo-1,2,4,5,6,7-hexahydro-azepino[3,2,1-hi]indole-2-carboxylic acid (1H-[1,2,3]triazol-4-ylmethyl)-amide] it is 301 to 1000 nM.
The value for `CC(C)[C@H](NC(=O)c1ccc(F)cc1)C(=O)N[C@H]1CCc2cccc3c2N(C1=O)[C@H](C(=O)NCc1c[nH]nn1)C3` [Compound C047, (2S,5S)-5-[(S)-2-(4-Fluoro-benzoylamino)-3-methyl-butyrylamino]-4-oxo-1,2,4,5,6,7-hexahydro-azepino[3,2,1-hi]indole-2-carboxylic acid (1H-[1,2,3]triazol-4-ylmethyl)-amide] was 301 to 1000 nM; that for `CC(C)[C@H](NC(=O)c1cccc(F)c1)C(=O)N[C@H]1CCc2cccc3c2N(C1=O)[C@H](C(=O)NCc1c[nH]nn1)C3` [Compound C048, (2S,5S)-5-[(S)-2-(3-Fluoro-benzoylamino)-3-methyl-butyrylamino]-4-oxo-1,2,4,5,6,7-hexahydro-azepino[3,2,1-hi]indole-2-carboxylic acid (1H-[1,2,3]triazol-4-ylmethyl)-amide] was 1 to 300 nM; that for `CC(C)[C@H](NC(=O)c1ccccc1F)C(=O)N[C@H]1CCc2cccc3c2N(C1=O)[C@H](C(=O)NCc1c[nH]nn1)C3` [Compound C049, (2S,5S)-5-[(S)-2-(2-Fluoro-benzoylamino)-3-methyl-butyrylamino]-4-oxo-1,2,4,5,6,7-hexahydro-azepino[3,2,1-hi]indole-2-carboxylic acid (1H-[1,2,3]triazol-4-ylmethyl)-amide] was 301 to 1000 nM.
With `Cc1ccccc1C(=O)N[C@H](C(=O)N[C@H]1CCc2cccc3c2N(C1=O)[C@H](C(=O)NCc1c[nH]nn1)C3)C(C)C` [Compound C050, (2S,5S)-5-[(S)-3-Methyl-2-(2-methyl-benzoylamino)-butyrylamino]-4-oxo-1,2,4,5,6,7-hexahydro-azepino[3,2,1-hi]indole-2-carboxylic acid (1H-[1,2,3]triazol-4-ylmethyl)-amide], the IC50 fell in the range of 1 to 300 nM.
`Cc1cccc(C(=O)N[C@H](C(=O)N[C@H]2CCc3cccc4c3N(C2=O)[C@H](C(=O)NCc2c[nH]nn2)C4)C(C)C)c1` [Compound C051, (2S,5S)-5-[(S)-3-Methyl-2-(3-methyl-benzoylamino)-butyrylamino]-4-oxo-1,2,4,5,6,7-hexahydro-azepino[3,2,1-hi]indole-2-carboxylic acid (1H-[1,2,3]triazol-4-ylmethyl)-amide]: the IC50 is 1 to 300 nM.
The figure for `Cc1ccc(C(=O)N[C@H](C(=O)N[C@H]2CCc3cccc4c3N(C2=O)[C@H](C(=O)NCc2c[nH]nn2)C4)C(C)C)cc1` [Compound C052, (2S,5S)-5-[(S)-3-Methyl-2-(4-methyl-benzoylamino)-butyrylamino]-4-oxo-1,2,4,5,6,7-hexahydro-azepino[3,2,1-hi]indole-2-carboxylic acid (1H-[1,2,3]triazol-4-ylmethyl)-amide] is 1 to 300 nM.
The value for `CC([C@H](NC(=O)c1ccccc1)C(=O)N[C@H]1CCc2cccc3c2N(C1=O)[C@H](C(=O)NCc1c[nH]nn1)C3)C(F)(F)F` (stereo partly drawn) [Compound C055, (2S,5S)-5-((S)-2-Benzoylamino-4,4,4-trifluoro-3-methyl-butyrylamino)-4-oxo-1,2,4,5,6,7-hexahydro-azepino[3,2,1-hi]indole-2-carboxylic acid (1H-[1,2,3]triazol-4-ylmethyl)-amide] was 1 to 300 nM; that for `CC[C@H](C)[C@H](NC(=O)c1ccccc1OC)C(=O)N[C@H]1CCc2cccc3c2N(C1=O)[C@H](C(=O)NCc1c[nH]nn1)C3` [Compound C060, (2S,5S)-5-[(2S,3S)-2-(2-Methoxy-benzoylamino)-3-methyl-pentanoylamino]-4-oxo-1,2,4,5,6,7-hexahydro-azepino[3,2,1-hi]indole-2-carboxylic acid(1H-[1,2,3]triazol-4-ylmethyl)-amide] was 1 to 300 nM; that for `CC[C@H](C)[C@H](NC(=O)c1cccc(OC)c1)C(=O)N[C@H]1CCc2cccc3c2N(C1=O)[C@H](C(=O)NCc1c[nH]nn1)C3` [Compound C061, (2S,5S)-5-[(2S,3S)-2-(3-Methoxy-benzoylamino)-3-methyl-pentanoylamino]-4-oxo-1,2,4,5,6,7-hexahydro-azepino[3,2,1-hi]indole-2-carboxylic acid(1H-[1,2,3]triazol-4-ylmethyl)-amide] was 1 to 300 nM.
The value for `CC[C@H](C)[C@H](NC(=O)c1ccc(OC)cc1)C(=O)N[C@H]1CCc2cccc3c2N(C1=O)[C@H](C(=O)NCc1c[nH]nn1)C3` [Compound C062, (2S,5S)-5-[(2S,3S)-2-(4-Methoxy-benzoylamino)-3-methyl-pentanoylamino]-4-oxo-1,2,4,5,6,7-hexahydro-azepino[3,2,1-hi]indole-2-carboxylic acid(1H-[1,2,3]triazol-4-ylmethyl)-amide] was 1 to 300 nM; that for `COc1ccccc1C(=O)N[C@H](C(=O)N[C@H]1CCc2cccc3c2N(C1=O)[C@H](C(=O)NCc1c[nH]nn1)C3)C(C)C` [Compound C063, (2S,5S)-5-[(S)-2-(2-Methoxy-benzoylamino)-3-methyl-butyrylamino]-4-oxo-1,2,4,5,6,7-hexahydro-azepino[3,2,1-hi]indole-2-carboxylic acid (1H-[1,2,3]triazol-4-ylmethyl)-amide] was 1 to 300 nM.
